We go through 19 molecules from patent US12692262B2, “Substituted ureas as orexin receptor agonists” (Merck Sharp & Dohme LLC, priority 2020, dated 2026).

The assay deals with T1, human OX2R (Homo sapiens, UniProt O43614).
T1 construct: expressed in transfected cells; host or cells: CHO (Chinese hamster ovary) cells grown under G418 selection
T1 sequence (O43614 1-444): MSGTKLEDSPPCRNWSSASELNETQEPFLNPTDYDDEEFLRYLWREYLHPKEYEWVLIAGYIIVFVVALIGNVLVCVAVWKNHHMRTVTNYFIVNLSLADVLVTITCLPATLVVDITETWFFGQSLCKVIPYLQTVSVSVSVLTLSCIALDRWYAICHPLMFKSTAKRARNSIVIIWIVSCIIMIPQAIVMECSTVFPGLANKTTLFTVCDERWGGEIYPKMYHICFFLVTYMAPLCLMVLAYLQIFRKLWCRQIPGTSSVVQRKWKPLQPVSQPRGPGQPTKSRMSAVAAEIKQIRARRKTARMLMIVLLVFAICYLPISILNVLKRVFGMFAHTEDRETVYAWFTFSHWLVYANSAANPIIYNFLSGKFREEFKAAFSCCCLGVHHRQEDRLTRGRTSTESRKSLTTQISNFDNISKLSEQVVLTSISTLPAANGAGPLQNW
Nature of the assay: IPOne (IP-1 accumulation) assay in CHO cells expressing human OX2R. The note with it: for EC50: CHO cells expressing human OX2R, IP-One assay, 2 h incubation, four parameter logistic fit, read-out: OX2R Potency, EC50; for % of maximum agonist effect (relative to Orexin A): percent effect vs mean max effect of a reference compound at 1 uM (100% activity vs Orexin A), human OX2R. Format: cell-based. The text has this:
The utility of the compounds in accordance with the present invention as orexin receptor OX1R and/or OX2R agonists may be readily determined without undue experimentation by methodology well known in the art. Both the OX1R and/or OX2R G-coupled protein receptors (GPCRs) couple through the Gαq signaling pathway, which ultimately promotes calcium mobilization via inositol triphosphate (IP3) production. […] The utility of the compounds in accordance with the present invention as orexin receptor OX1R and/or OX2R agonists may be determined utilizing this assay.
In a typical experiment, the OX1 and OX2 receptor agonist activity is determined in accordance with the following general experimental method. Chinese hamster ovary (CHO) cells expressing human OX1R and/or the human OX2R were grown in Iscove's modified DMEM containing glutaMAX™, 1% G418, 100 U/mL penicillin, 100 μg/mL streptomycin and 10% heat-inactivated qualified fetal bovine serum (FBS). […] During this incubation, IP-one detection reagents were prepared (38:1:1 lysis buffer:D2:AB-cryptate reagents).
For each compound, data were fit to a four parameter logistic fit (ActivityBase software) and the EC50 was reported as the inflection point of the resulting curve. […] The intrinsic orexin receptor agonist activity of a compound which may be used in the present invention may be determined by these assays.

As to `CCN(C(=O)NC(CC#N)C(F)(F)F)[C@H](C)c1cccc(-c2cn3ccnc3c(OC)n2)c1` (stereo partly drawn) [Example 1-14, 3-(3-cyano-1,1,1-trifluoropropan-2-yl)-1-ethyl-1-((R)-1-(3-(8-methoxyimidazo[1,2-a]pyrazin-6-yl)phenyl)ethyl)urea], the EC50 came out at 18.5 nM and the “% of maximum agonist effect (relative to Orexin A)” value came to 101.3%.

With `CCN(C(=O)NC(C1CN(C)C1)C(F)(F)F)[C@H](C)c1cccc(-c2cn3ccnc3c(OC)n2)c1` (stereo partly drawn) [Example 1-15, 1-ethyl-1-((R)-1-(3-(8-methoxyimidazo[1,2-a]pyrazin-6-yl)phenyl)ethyl)-3-(2,2,2-trifluoro-1-(1-methylazetidin-3-yl)ethyl)urea], the EC50 is 271 nM and the “% of maximum agonist effect (relative to Orexin A)” value came to 99.7%.

For `CCN(C(=O)NC(Cn1nccn1)C(F)(F)F)[C@H](C)c1cccc(-c2cn3ccnc3c(OC)n2)c1` (stereo partly drawn) [Example 1-16, 1-ethyl-1-((R)-1-(3-(8-methoxyimidazo[1,2-a]pyrazin-6-yl)phenyl)ethyl)-3-(1,1,1-trifluoro-3-(2H-1,2,3-triazol-2-yl)propan-2-yl)urea], the EC50 was 2.8 nM and the “% of maximum agonist effect (relative to Orexin A)” value came out at 100.1%.

Regarding `CCN(C(=O)NC(Cn1ccnn1)C(F)(F)F)[C@H](C)c1cccc(-c2cn3ccnc3c(OC)n2)c1` (stereo partly drawn) [Example 1-17, 1-ethyl-1-((R)-1-(3-(8-methoxyimidazo[1,2-a]pyrazin-6-yl)phenyl)ethyl)-3-(1,1,1-trifluoro-3-(1H-1,2,3-triazol-1-yl)propan-2-yl)urea], the EC50 was determined as 10.5 nM and the “% of maximum agonist effect (relative to Orexin A)” value stood at 98.7%.

`CCN(C(=O)N[C@@H](C)C(F)(F)F)[C@@H](c1cc(-c2cn3ccnc3c(OC)n2)c(OC)cn1)C(F)(F)F` [Example 2-1, 1-ethyl-1-((S)-2,2,2-trifluoro-1-(5-methoxy-4-(8-methoxyimidazo[1,2-a]pyrazin-6-yl)pyridin-2-yl)ethyl)-3-((S)-1,1,1-trifluoropropan-2-yl)urea]: the EC50 was 6.8 nM and the “% of maximum agonist effect (relative to Orexin A)” value came out at 100.1%.

Take `CCN(C(=O)NC(CC(C)C(F)(F)F)C(F)(F)F)[C@H](C)c1cccc(-c2cn3ccnc3c(OC)n2)c1` (stereo partly drawn) [Example 2-2, 1-ethyl-3-(1,1,1,5,5,5-hexafluoro-4-methylpentan-2-yl)-1-((R)-1-(3-(8-methoxyimidazo[1,2-a]pyrazin-6-yl)phenyl)ethyl)urea]: the EC50 stood at 3.7 nM and the “% of maximum agonist effect (relative to Orexin A)” value stood at 99.1%.

As for `CCC(CC(C)C(F)(F)F)NC(=O)N(CC)[C@H](C)c1cccc(-c2cn3ccnc3c(OC)n2)c1` (stereo partly drawn) [Example 2-3, 1-ethyl-1-((R)-1-(3-(8-methoxyimidazo[1,2-a]pyrazin-6-yl)phenyl)ethyl)-3-(6,6,6-trifluoro-5-methylhexan-3-yl)urea], the EC50 is 4.6 nM and the “% of maximum agonist effect (relative to Orexin A)” value was 100.6%.

Turning to `CCN(C(=O)NC(C1CC(F)(F)CC(C)(C)O1)C(F)(F)F)[C@@H](c1cc(-c2cn3cc(C)nc3c(OC)n2)c(OC)cn1)C(F)(F)F` (stereo partly drawn) [Example 2-4, 3-(1-(4,4-difluoro-6,6-dimethyltetrahydro-2H-pyran-2-yl)-2,2,2-trifluoroethyl)-1-ethyl-1-((S)-2,2,2-trifluoro-1-(5-methoxy-4-(8-methoxy-2-methylimidazo[1,2-a]pyrazin-6-yl)pyridin-2-yl)ethyl)urea], the EC50 came out at 4.3 nM and the “% of maximum agonist effect (relative to Orexin A)” value is 100.6%.

Take `CCN(C(=O)NC(C1CCC1)C(F)(F)F)[C@@H](c1cc(-c2cn3ccnc3c(OC)n2)c(OC)cn1)C(F)(F)F` (stereo partly drawn) [Example 2-5, 3-(1-cyclobutyl-2,2,2-trifluoroethyl)-1-ethyl-1-((S)-2,2,2-trifluoro-1-(5-methoxy-4-(8-methoxyimidazo[1,2-a]pyrazin-6-yl)pyridin-2-yl)ethyl)urea]: the EC50 was 10.7 nM and the “% of maximum agonist effect (relative to Orexin A)” value worked out at 100.7%.

As for `CCN(C(=O)NC(C1CC1)C(F)(F)F)C(c1cc(-c2cn3ccnc3c(OC)n2)c(OC)cn1)C(F)(F)F` (centres unmarked) [Example 2-6, 3-(1-cyclopropyl-2,2,2-trifluoroethyl)-1-ethyl-1-(2,2,2-trifluoro-1-(5-methoxy-4-(8-methoxyimidazo[1,2-a]pyrazin-6-yl)pyridin-2-yl)ethyl)urea], the EC50 worked out at 12.1 nM and the “% of maximum agonist effect (relative to Orexin A)” value is on record as 101.5%.

As to `CCN(C(=O)NC(C(F)F)C1CC1)[C@@H](c1cc(-c2cn3ccnc3c(OC)n2)c(OC)cn1)C(F)(F)F` (stereo partly drawn) [Example 2-7, 3-(1-cyclopropyl-2,2-difluoroethyl)-1-ethyl-1-((S)-2,2,2-trifluoro-1-(5-methoxy-4-(8-methoxyimidazo[1,2-a]pyrazin-6-yl)pyridin-2-yl)ethyl)urea], the EC50 was 12.5 nM and the “% of maximum agonist effect (relative to Orexin A)” value is recorded as 100.1%.

On to `CC[C@H](NC(=O)N(CC)C(c1cc(-c2cn3ccnc3c(OC)n2)c(OC)cn1)C(F)(F)F)C(F)(F)F` (stereo partly drawn) [Example 2-8, 1-ethyl-1-(2,2,2-trifluoro-1-(5-methoxy-4-(8-methoxyimidazo[1,2-a]pyrazin-6-yl)pyridin-2-yl)ethyl)-3-((S)-1,1,1-trifluorobutan-2-yl)urea], for which the EC50 came out at 13.3 nM and the “% of maximum agonist effect (relative to Orexin A)” value was 100.0%.

Consider `CCN(C(=O)NC1CCC1C(F)(F)F)[C@@H](c1cc(-c2cn3ccnc3c(OC)n2)c(OC)cn1)C(F)(F)F` (stereo partly drawn) [Example 2-9, 1-ethyl-1-((S)-2,2,2-trifluoro-1-(5-methoxy-4-(8-methoxyimidazo[1,2-a]pyrazin-6-yl)pyridin-2-yl)ethyl)-3-(2-(trifluoromethyl)cyclobutyl)-urea], for which the EC50 came to 20.3 nM and the “% of maximum agonist effect (relative to Orexin A)” value amounted to 100.0%.

For the molecule `CCC(NC(=O)N(CC)[C@@H](c1cc(-c2cn3ccnc3c(OC)n2)c(OC)cn1)C(F)(F)F)C(F)F` (stereo partly drawn) [Example 2-10, 3-(1,1-difluorobutan-2-yl)-1-ethyl-1-((S)-2,2,2-trifluoro-1-(5-methoxy-4-(8-methoxyimidazo[1,2-a]pyrazin-6-yl)pyridin-2-yl)ethyl)urea], the EC50 was 22.5 nM and the “% of maximum agonist effect (relative to Orexin A)” value worked out at 98.5%.

Turning to `CCN(C(=O)NCC(C)C(F)(F)F)[C@@H](c1cc(-c2cn3ccnc3c(OC)n2)c(OC)cn1)C(F)(F)F` (stereo partly drawn) [Example 2-11, 1-ethyl-1-((S)-2,2,2-trifluoro-1-(5-methoxy-4-(8-methoxyimidazo[1,2-a]pyrazin-6-yl)pyridin-2-yl)ethyl)-3-(3,3,3-trifluoro-2-methylpropyl)urea], the EC50 stood at 30.3 nM and the “% of maximum agonist effect (relative to Orexin A)” value was found to be 97.6%.

With `CCN(C(=O)N[C@@H](CCC(F)(F)F)C(F)(F)F)C(c1cc(-c2cn3ccnc3c(OC)n2)c2occc2n1)C(F)(F)F` (stereo partly drawn) [Example 2-13, 1-ethyl-3-((S)-1,1,1,5,5,5-hexafluoropentan-2-yl)-1-(2,2,2-trifluoro-1-(7-(8-methoxyimidazo[1,2-a]pyrazin-6-yl)furo[3,2-b]pyridin-5-yl)ethyl)urea], the EC50 was 2.1 nM and the “% of maximum agonist effect (relative to Orexin A)” value stood at 99.9%.

On to `CCN(C(=O)N[C@@H](CCC(F)(F)F)C(F)(F)F)C(c1cc(-c2cn3ccnc3c(OC)n2)c2nccn2c1)C(F)(F)F` (stereo partly drawn) [Example 2-14, 1-ethyl-3-((S)-1,1,1,5,5,5-hexafluoropentan-2-yl)-1-(2,2,2-trifluoro-1-(8-(8-methoxyimidazo[1,2-a]pyrazin-6-yl)imidazo[1,2-a]pyridin-6-yl)ethyl)urea], for which the EC50 is 8.7 nM and the “% of maximum agonist effect (relative to Orexin A)” value is reported as 100.1%.

Regarding `CCN(C(=O)N[C@@H](CCC(F)(F)F)C(F)(F)F)C(c1cnc(SC)c(-c2cc(OC)n3nccc3c2)c1)C(F)(F)F` (stereo partly drawn) [Example 2-15, 1-ethyl-3-((S)-1,1,1,5,5,5-hexafluoropentan-2-yl)-1-(2,2,2-trifluoro-1-(5-(7-methoxypyrazolo[1,5-a]pyridin-5-yl)-6-(methylthio)pyridin-3-yl)ethyl)urea], the EC50 was 24 nM and the “% of maximum agonist effect (relative to Orexin A)” value was determined as 98.4%.

Turning to `CCN(C(=O)N[C@@H](CCC(F)(F)F)C(F)(F)F)C(c1cc(-c2cn3cc(C)nc3c(OC)n2)c(OC)cn1)C1CC1` (stereo partly drawn) [Example 2-16, 1-(cyclopropyl(5-methoxy-4-(8-methoxy-2-methylimidazo[1,2-a]pyrazin-6-yl)pyridin-2-yl)methyl)-1-ethyl-3-((S)-1,1,1,5,5,5-hexafluoropentan-2-yl)urea], the EC50 was 54.5 nM and the “% of maximum agonist effect (relative to Orexin A)” value came to 101.1%.
